Measurements from ChEMBL document CHEMBL4219187, “A new target for Alzheimer's disease: A small molecule SERCA activator is neuroprotective in vitro and improves memory and cognition in APP/PS1 mice” (Bioorg Med Chem Lett, 2018).
The source made the active and inactive calls. No cut-off for these calls is given here.

How the values were obtained:
[1] = Half life in mouse hepatocytes; type: ADME, cell-based, Hepatocyte
[2] = Half life in human microsomes; type: ADME, Microsome
[3] = test system: Mus musculus; assay: Antidepressant activity in APPSWE/PSEN1dE9 double-transgenic mouse model of Alzheimer's disease assessed as reduction in immobility time at 10 mg/kg, ip administered daily for 5 days per week for 4 weeks by tail suspension test; type: functional, organism-based
[4] = target: Voltage-gated inwardly rectifying potassium channel KCNH2 (Homo sapiens, UniProt Q12809); assay: Inhibition of human ERG up to 10 uM
Sequence of Voltage-gated inwardly rectifying potassium channel KCNH2 (Q12809 whole entry): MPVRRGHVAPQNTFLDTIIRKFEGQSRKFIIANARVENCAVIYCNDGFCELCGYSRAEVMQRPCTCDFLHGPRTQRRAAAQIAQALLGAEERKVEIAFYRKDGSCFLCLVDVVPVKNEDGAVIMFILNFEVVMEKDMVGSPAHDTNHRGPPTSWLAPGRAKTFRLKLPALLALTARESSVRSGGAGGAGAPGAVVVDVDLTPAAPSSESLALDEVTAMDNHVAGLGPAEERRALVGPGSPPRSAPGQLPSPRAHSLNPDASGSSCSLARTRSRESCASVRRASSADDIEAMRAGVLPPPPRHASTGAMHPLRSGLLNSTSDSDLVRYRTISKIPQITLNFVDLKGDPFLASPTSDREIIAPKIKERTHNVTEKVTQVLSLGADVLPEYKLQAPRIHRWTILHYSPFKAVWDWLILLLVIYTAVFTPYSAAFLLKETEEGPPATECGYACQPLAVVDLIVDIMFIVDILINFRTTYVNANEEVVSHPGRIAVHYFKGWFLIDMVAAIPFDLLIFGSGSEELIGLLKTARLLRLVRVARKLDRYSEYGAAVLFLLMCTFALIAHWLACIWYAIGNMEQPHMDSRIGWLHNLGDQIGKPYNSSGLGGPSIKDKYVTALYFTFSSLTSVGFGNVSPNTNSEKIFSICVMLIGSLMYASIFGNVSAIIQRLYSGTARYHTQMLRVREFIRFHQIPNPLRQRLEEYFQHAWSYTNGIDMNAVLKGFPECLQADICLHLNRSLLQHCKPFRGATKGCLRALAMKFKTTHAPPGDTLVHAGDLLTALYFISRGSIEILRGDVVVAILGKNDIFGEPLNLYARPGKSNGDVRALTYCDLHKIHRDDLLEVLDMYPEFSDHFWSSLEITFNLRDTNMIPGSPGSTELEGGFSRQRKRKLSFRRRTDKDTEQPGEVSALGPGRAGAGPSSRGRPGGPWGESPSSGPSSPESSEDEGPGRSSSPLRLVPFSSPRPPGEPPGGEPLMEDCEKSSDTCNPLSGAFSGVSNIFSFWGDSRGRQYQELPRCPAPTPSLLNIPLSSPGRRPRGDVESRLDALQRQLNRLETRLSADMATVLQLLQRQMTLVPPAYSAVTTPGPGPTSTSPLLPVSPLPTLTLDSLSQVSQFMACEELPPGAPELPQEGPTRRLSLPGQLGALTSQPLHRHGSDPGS

[5] = Oral bioavailability in mouse at 50 mg/kg; type: ADME, organism-based; details: in vivo
[6] = Inhibition of CYP450 (unknown origin) up to 5 uM; type: ADME; details: human
[7] = test system: HeLa; assay: Activation of SERCA in human HeLa cells assessed as protection against thapsigargin induced depletion of ER calcium stores at 10 uM up to 150 secs by cameleon plasmid-based fluorescence assay; type: cell-based
[8] = test system: Mus musculus; assay: Toxicity in mouse at 50 mg/kg, po; type: organism-based; details: in vivo
[9] = Half life in mouse microsomes; type: ADME, Microsome
[10] = Half life in human hepatocytes; type: ADME, cell-based, Hepatocyte
[11] = Cytotoxicity against rat CSM14.1 cells assessed as cell viability after 20 hrs by ATPlite assay relative to control; type: cell-based; details: read-out: Activity
[12] = test system: Mus musculus; assay: Antialzheimer activity in APPSWE/PSEN1dE9 double-transgenic mouse model of Alzheimer's disease assessed as decrease in impairment of motor coordination at 10 mg/kg, ip administered daily for 5 days per week for 4 weeks by rotarod test; type: functional, organism-based
[13] = organism: Rattus norvegicus; assay: Cytoprotection against thapsigargin induced cell death in rat CSM14.1 cells assessed as increase in cell viability preincubated for 2 hrs followed by thapsigargin induction measured after 20 hrs by ATPlite assay; type: functional, cell-based
[14] = Half life in human plasma; type: ADME, cell-free
[15] = Half life in mouse plasma; type: ADME, cell-free
[16] = Ratio of drug level in brain to plasma in mouse measured at 1 hr post dose; type: ADME, cell-free; details: brain and plasma, read-out: BPR
[17] = test system: Mus musculus; assay: Cognition enhancement activity in APPSWE/PSEN1dE9 double-transgenic mouse model of Alzheimer's disease assessed as decrease in total swim distance for hidden platform at 10 mg/kg, ip administered daily for 5 days per week for 4 weeks by Morris water maze test; type: functional, organism-based
[18] = Clearance in mouse at 2 mg/kg, po; type: ADME, organism-based; details: in vivo

Structure (SMILES): Cc1ccc2cccc(NC(=O)c3ccc(OC(C)C)cc3)c2n1
- half-life [1]: 2 min
- half-life [2]: 15 min
- Activity [3]: Active
- inhibition (INH) [4]: Active
- bioavailability [5]: 37%
- inhibition (INH) [6]: Not Active
- Activity [7]: Active
- Activity [8]: Non-Toxic
- half-life [9]: 2 min
- half-life [10]: 45 min
- viability at 20 h [11]: 100%
- Activity [12]: Active
- Activity [13]: Dose-dependent effect
- half-life [14]: > 300 min
- half-life [15]: 140 min
- Kp at 1 h [16]: 3
- Activity [17]: Active
- CL/F [18]: 251 mL/min/kg
